Here are results for 17 compounds from patent publication US10968462B2, “Plants having increased tolerance to herbicides” (BASF AGRO B.V., priority 2013, dated 2021).

What all share (type): biochemical, Amaranthus tuberculatum
Assay [1] addresses T1, wild type and amino acid substituted PPO enzyme (PPO2) of SEQ ID NO: 2 (AMARE) (Amaranthus tuberculatus, UniProt Q0NZW9, R128I/F420L, form not given).
T1 sequence (Q0NZW9 1-534 R128I/F420L): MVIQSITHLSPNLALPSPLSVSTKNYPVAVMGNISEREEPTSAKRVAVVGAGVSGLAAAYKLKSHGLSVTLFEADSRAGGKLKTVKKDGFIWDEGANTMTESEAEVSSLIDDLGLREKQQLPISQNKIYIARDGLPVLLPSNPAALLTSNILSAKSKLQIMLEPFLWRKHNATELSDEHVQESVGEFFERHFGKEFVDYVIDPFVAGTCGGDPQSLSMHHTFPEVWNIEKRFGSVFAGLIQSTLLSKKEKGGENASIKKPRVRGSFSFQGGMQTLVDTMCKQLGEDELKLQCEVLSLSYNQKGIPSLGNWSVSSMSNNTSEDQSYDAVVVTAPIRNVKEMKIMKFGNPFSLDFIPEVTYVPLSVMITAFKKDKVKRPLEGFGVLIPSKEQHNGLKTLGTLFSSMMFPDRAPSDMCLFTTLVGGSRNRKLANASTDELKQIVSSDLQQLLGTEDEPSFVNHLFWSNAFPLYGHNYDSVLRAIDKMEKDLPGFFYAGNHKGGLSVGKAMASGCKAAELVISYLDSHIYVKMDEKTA

The target in assay [2] is T2, wild type and amino acid substituted PPO enzyme (PPO2) of SEQ ID NO: 2 (AMARE) (Amaranthus tuberculatus, UniProt Q0NZW9, R128T/F420M, form not given).
T2 sequence (Q0NZW9 1-534 R128T/F420M): T1 sequence (Q0NZW9 1-534 R128I/F420L) with I128T, L420M

Assay [3] addresses wild type and amino acid substituted PPO enzyme (PPO2) of SEQ ID NO: 2 (AMARE).

Residue numbers refer to the chain shown, from its start. pIC50: −log10 of the molar value. “And” between values parts separate entries of the source, which are not always exact repeats. Identical values can stand only once. Like-named read-outs stand apart in the source and are kept apart here. Where only a bound is given, the exact number is not on record here.

For `CCOC(=O)C(C)OC(=O)c1cc(Oc2ccc(C(F)(F)F)cc2Cl)ccc1[N+](=O)[O-]` (stereo not shown) [LACTOFEN], in assay [1], the negative-log IC50 (pIC50) (in general, the negative decadic logarithm of the IC50, by convention in mol/L) was 6.89. In the case of `CS(=O)(=O)NC(=O)c1cc(Oc2ccc(C(F)(F)F)cc2Cl)ccc1[N+](=O)[O-]` [FOMESAFEN], in assay [1], the pIC50 was at most 5.00 and the “inhibition (%) at 1 × 10−5M” value amounted to 38%.

As to `COC(Oc1ccccc1Oc1cc(-n2c(=O)cc(C(F)(F)F)n(C)c2=O)c(F)cc1Cl)C(=O)OCC(F)F` (stereo not shown), the negative-log IC50 (pIC50) in assay [2] is 6.82.

For `COC(=O)C(OC)Oc1ccccc1Oc1cc(-n2c(=O)cc(C(F)(F)F)n(C)c2=O)c(F)cc1Cl` (stereo not shown), the negative logarithm of the IC50 (pIC50) is 7.55 in assay [2] and 7.94 in assay [3]. On to `COC(Oc1ccccc1Oc1cc(-n2c(=O)cc(C(F)(F)F)n(C)c2=O)c(F)cc1Cl)C(=O)OC1CCCCC1` (stereo not shown), for which, in assay [2], the pIC50 was 6.93. For the same compound, the “inhibition (%) at 1 × 10−5M” value in assay [3] was 26%. In assay [1], `CCOC(=O)C(Cl)Cc1cc(-n2nc(C)n(C(F)F)c2=O)c(F)cc1Cl` (stereo not shown) [CARFENTRAZONE-ETHYL] gave a negative logarithm of the IC50 (pIC50) of 6.79. Still for that read-out and setting: with `CCOc1cc(Oc2ccc(C(F)(F)F)cc2Cl)ccc1[N+](=O)[O-]` [OXIFLUORFEN] the figure was 5.38. Compound `CCOCCOC(=O)C(OC)Oc1ccccc1Oc1cc(-n2c(=O)cc(C(F)(F)F)n(C)c2=O)c(F)cc1Cl` (stereo not shown) showed a pIC50 in assay [2] of 7.53.

As for `C=CCOC(=O)C(C)(C)OC(=O)c1cc(-n2c(=O)cc(C(F)(F)F)n(C)c2=O)ccc1Cl` [BUTAFENACIL], the pIC50 in assay [1] was 7.10. On to `CCOC(=O)/C(Cl)=C/c1cc(N2C(=O)C3=C(CCCC3)C2=O)ccc1Cl` [CINIDON-ETHYL], for which the pIC50 in assay [1] (read-out: IC50) is 5.02. Moreover, the “inhibition (%) at 1 × 10−5M” value in assay [3] is reported as 48%. With `O=C(O)c1cc(Oc2ccc(C(F)(F)F)cc2Cl)ccc1[N+](=O)[O-]` [ACIFLUORFEN], in assay [1], the negative logarithm of the IC50 (pIC50) was at most 5.00 and the “inhibition (%) at 1 × 10−5M” value is 16%. Also, the “inhibition (%) at 1 × 10−5M” value in assay [3] is 27% and 33%. With `C#CCN1C(=O)C(F)(F)Oc2cc(F)c(-n3c(=O)n(C)c(=S)n(C)c3=O)cc21` [BAS 850H], in assay [1], the pIC50 is 6.39 and 6.61. In the case of `COC(Oc1ccccc1Oc1cc(-n2c(=O)cc(C(F)(F)F)n(C)c2=O)c(F)cc1Cl)C(=O)OCc1ccncc1` (stereo not shown), the pIC50 in assay [2] was 7.23. Consider `C#CCN1C(=O)COc2cc(F)c(N3C(=O)C4=C(CCCC4)C3=O)cc21` [FLUMIOXAZIN], for which, in assay [1], the pIC50 was at most 5.00 and the “inhibition (%) at 1 × 10−5M” value is reported as 9%. In addition, the “inhibition (%) at 1 × 10−5M” value in assay [3] is 41% and 48%. On to `COC(Oc1ccccc1Oc1cc(-n2c(=O)cc(C(F)(F)F)n(C)c2=O)c(F)cc1Cl)C(=O)OCC1(C)CC1` (stereo not shown), for which the pIC50 in assay [2] was 7.24.

Turning to `CCOC(=O)COc1ncccc1Oc1cc(-n2c(=O)cc(C(F)(F)F)n(C)c2=O)c(F)cc1Cl` [A.13, ethyl [3-[2-chloro-4-fluoro-5-(1-methyl-6-trifluoromethyl-2,4-dioxo-1,2,3,4-tetrahydropyrimidin-3-yl)phenoxy]-2-pyridyloxy]acetate, reference compound], the negative-log IC50 (pIC50) in assay [1] was 6.70. Regarding OXADIARGYL, the negative logarithm of the IC50 (pIC50) in assay [1] (read-out: IC50) is 6.06.
